Here are results for 13 molecules from PubChem BioAssay AID256 (DTP/NCI, 2004).

SMILES strings stand for the structures. Values joined by “and” are separate entries in the source; they are usually repeats but may differ in a detail not shown here. Equal entries are not always repeated. Toxic doses and inconclusive results are not listed.

The subject of this assay is CD2F1 mice, L1210 leukemia ip, survival T/C. The assay can be described thus: NCI In Vivo Anticancer Drug Screen. Data for tumor model L1210 Leukemia (intraperitoneal) in CD2F1 (CDF1) mice. As to conditions: higher = longer survival. A digest of the protocol:
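Transplantable tumor in mice; compound-treated vs vehicle-treated groups. Read-out = treated/control ratio of the measured endpoint.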

Setting [1] is: endpoint: mean survival time, dose: 50.0 mg/kg/injection, schedule: Q01DX009 (ip), vehicle: saline with Tween-80.
[2] abbreviates: endpoint: mean survival time, dose: 100.0 mg/kg/injection, schedule: Q01DX009 (ip), vehicle: saline with Tween-80.
Where [3] appears, read: endpoint: mean survival time, dose: 100.0 mg/kg/injection, schedule: Q04DX003 (ip), vehicle: saline with Tween-80.
Setting [4] is: endpoint: mean survival time, dose: 200.0 mg/kg/injection, schedule: Q01DX009 (ip), vehicle: saline with Tween-80.
Setting [5] is: endpoint: mean survival time, dose: 200.0 mg/kg/injection, schedule: Q04DX003 (ip), vehicle: saline with Tween-80.
Where [6] appears, read: endpoint: mean survival time, dose: 400.0 mg/kg/injection, schedule: Q04DX003 (ip), vehicle: saline with Tween-80.
[7] abbreviates: endpoint: mean survival time, dose: 400.0 mg/kg/injection, schedule: Q01DX009 (ip), vehicle: saline with Tween-80.
The mark [8] stands for this setting: endpoint: mean survival time, dose: 25.0 mg/kg/injection, schedule: Q01DX009 (ip), vehicle: saline with Tween-80.

Take `Cn1c(-c2ccccc2)cc(=O)cc1-c1ccccc1`: the T/C by setting is: under setting [1], 96 % of control; under setting [2], 93 % of control; under setting [3], 91 % of control; under setting [4], 94 % of control; under setting [5], 97 % of control.
As for `O=c1[nH]c(=O)n(C2OC(CO)C(O)C(O)C2O)cc1F` (centres undefined), the T/C is, setting by setting: (endpoint: mean survival time, dose: 12.5 mg/kg/injection, schedule: Q01DX005 (ip), vehicle: water) 105 % of control; (endpoint: mean survival time, dose: 25.0 mg/kg/injection, schedule: Q01DX005 (ip), vehicle: water) 95 % of control; (endpoint: mean survival time, dose: 50.0 mg/kg/injection, schedule: Q01DX005 (ip), vehicle: water) 101 % of control; (endpoint: mean survival time, dose: 100.0 mg/kg/injection, schedule: Q01DX005 (ip), vehicle: water) 103 % of control; (endpoint: mean survival time, dose: 200.0 mg/kg/injection, schedule: Q01DX005 (ip), vehicle: water) 94 % of control.
Take `CCOc1cc2ccc3c4cc(OC)c(OC)cc4c[n+](C)c3c2cc1OCC`: the T/C by setting is: (endpoint: mean survival time, dose: 25.0 mg/kg/injection, schedule: Q04DX002 (ip), vehicle: saline with Tween-80) 107 % of control; (endpoint: mean survival time, dose: 50.0 mg/kg/injection, schedule: Q04DX002 (ip), vehicle: saline with Tween-80) 111 % of control; (endpoint: mean survival time, dose: 100.0 mg/kg/injection, schedule: Q04DX002 (ip), vehicle: saline with Tween-80) 103 % of control.
Take `COc1ccccc1OCC(C)=O`: the T/C is 108 % of control under setting [3], 98 % of control under setting [5] and 97 % of control under setting [6].
On to `CC(=O)Nc1c[n+]([O-])cc2ccccc12`, for which the T/C reads like this: under setting [2], 105 % of control; under setting [3], 94 % of control; under setting [4], 98 % of control; under setting [5], 96 % of control; under setting [7], 100 % of control; under setting [6], 94 % of control.
Consider `O=C(OC/C=C/CCl)c1ccc([N+](=O)[O-])cc1`, for which the T/C reads like this: under setting [8], 95 % of control; under setting [1], 94 % of control; under setting [2], 91 % of control and 94 % of control.
With `CC(=O)c1c(C)cc2cccc(OC3OC(CO)C(O)C(O)C3O)c2c1O` (centres undefined) (tested in a mixture with another compound), the T/C (endpoint: mean survival time, dose: 100.0 mg/kg/injection, schedule: Q04DX003 (ip), vehicle: saline) was 103 % of control; the T/C (endpoint: mean survival time, dose: 200.0 mg/kg/injection, schedule: Q04DX003 (ip), vehicle: saline) is 104 % of control; the T/C (endpoint: mean survival time, dose: 400.0 mg/kg/injection, schedule: Q04DX003 (ip), vehicle: saline) was 107 % of control.
With `C=CC1CCCCC1C=C` (centres undefined), the T/C by setting is: under setting [3], 110 % of control; under setting [5], 102 % of control; under setting [6], 100 % of control.
For `CCCCC(C)(C)C`, in that order: 99 % of control, 99 % of control and 114 % of control.
For `O=[N+]([O-])c1ccc2c(c1)COCO2`, the T/C runs as follows: under setting [2], 97 % of control; under setting [4], 97 % of control; under setting [7], 96 % of control.
Turning to `CCOC(=O)Nc1cc(NC(C)/C(=N/O)c2ccccc2)c([N+](=O)[O-])c(N)n1` (centres undefined), the T/C is 119 % of control and 98 % of control (endpoint: median survival time, dose: 25.0 mg/kg/injection, schedule: Q01DX005 (ip), vehicle: Klucel (hydroxypropylcellulose) (HPC)); 98 % of control (endpoint: median survival time, dose: 30.0 mg/kg/injection, schedule: Q01DX005 (ip), vehicle: Klucel (hydroxypropylcellulose) (HPC)); 119 % of control (endpoint: median survival time, dose: 40.0 mg/kg/injection, schedule: Q01DX005 (ip), vehicle: Klucel (hydroxypropylcellulose) (HPC)); 110 % of control (endpoint: median survival time, dose: 60.0 mg/kg/injection, schedule: Q01DX005 (ip), vehicle: Klucel (hydroxypropylcellulose) (HPC)); 122 % of control (endpoint: median survival time, dose: 120.0 mg/kg/injection, schedule: Q01DX005 (ip), vehicle: Klucel (hydroxypropylcellulose) (HPC)); 188 % of control (endpoint: median survival time, dose: 200.0 mg/kg/injection, schedule: Q01DX005 (ip), vehicle: Klucel (hydroxypropylcellulose) (HPC)).
In the case of `O=C(O)COc1ccc(Cl)cc1Cl`, the T/C is, setting by setting: (endpoint: mean survival time, dose: 100.0 mg/kg/injection, schedule: Q04DX003 (ip), vehicle: saline sonified) 95 % of control; (endpoint: mean survival time, dose: 200.0 mg/kg/injection, schedule: Q04DX003 (ip), vehicle: saline sonified) 92 % of control; (endpoint: mean survival time, dose: 400.0 mg/kg/injection, schedule: Q04DX003 (ip), vehicle: saline sonified) 95 % of control.
Regarding `NC1=NC(c2ccc(Cl)cc2)N(c2ccc(S(N)(=O)=O)cc2)C(N)=N1` (centres undefined), the T/C is, setting by setting: under setting [8], 100 % of control; under setting [1], 100 % of control; under setting [2], 96 % of control.
